Experimental data as given in patent US20230339919A1, “BENZO OXYGEN-CONTAINING HETEROCYCLIC COMPOUNDS AND MEDICAL APPLICATION THEREOF” (AB PHARMA LTD., priority 2020, published 2023).
Entries after “also recorded” stand apart in the source; their conditions may differ. Where two headings read alike, the source gives them in different places.

Assays:
[1] = target: T1, GPR40 (Homo sapiens, UniProt O14842); experiment: GPR40 agonist activity, FLIPR calcium assay in CHO-K1/GPR40 cells; assay type: cell-based
T1 construct: expressed in transfected cells; host or cells: CHO-K1
Protocol: Inoculate CHO-K1/GPR40 cells in 384-well plates at a density of 10,000 cells/well. Cells were incubated at 37° C. for 24 hours in a 5% CO2 incubator. After the experiment, discard the cell culture medium, quickly add […] of 1× FLIPR® Calcium 6 dye containing 2.5 mM/Probenecid to each well and incubate at 37° C. for 2 hours protected from light. For the determination, different concentrations of drug ([…]) were added to the wells and the fluorescence values were read. The fluorescence excitation wavelength was 494 nm and emission wavelength was 516 nm. FLIPR instrument data, EC50 was derived from the formula Y=Bottom+(Top−Bottom)/(1+(EC50/X)^HillSlope).

[2] = Acute Toxicity Study (MTD) by gavage in healthy mice; assay type: in vivo; details: mouse, in vivo, po; mice, 600 mg/kg by gavage, 5 consecutive days; read-out: LD50
[3] = tested on: healthy mice; experiment: as above; assay type: in vivo
[4] = target: BSEP bile salt transporter (Homo sapiens, UniProt O95342); experiment: BSEP (Bile Salt Export Pump) assay, taurocholic acid uptake by BSEP vesicles, LC/MS/MS; assay type: in vitro ADME
Excerpt: In this experiment, we performed a preliminary study on the inhibition of the uptake of the substrate taurocholic acid (TCA) by the BSEP bile salt transporter by LC/MS/MS. The BSEP protein microvesicles with reverse uptake ability were obtained by transfecting Hi5 cells with the BSEP gene, which is capable of TCA uptake and uptake of taurocholic acid. The principle of this experiment is to perform substrate uptake by BSEP protein microcapsules in the presence of energy ATP, the substrate TCA and the candidate compound to be tested, after a certain transit time, the energy, substrate and candidate compound were completely washed out of the microvesicle, and the absorbed substrate TCA was released by lysis of the microvesicle. […] The starting concentration of the sample was 100 mM, diluted in 2-fold gradient with Bravo apparatus, with 11 concentration gradients; the lowest point concentration was 97.65 μM. • 3. Control compound (Glyburide) starting at 20 mM, diluted in 2-fold gradient with Bravo instrument, with 11 concentration gradients; the lowest point concentration was 19.53 μM. • 4. 300 nl of compound was transferred to the middle plate using the ECHO autosampler. • 5. Positive control (HPE) wells and negative control (ZPE) wells were also transferred 300 nl DMSO each. […] Add 14.7 μl of ATP buffer to the corresponding wells of the compound and ZPE, respectively. • 2. Add 14.7 μl of AMP buffer to the corresponding wells of the HPE. • 3. Shake the plate at 25 degrees C. for 10 minutes. • 4. […] Immediately add 5 ul of 0.5M EDTA solution to all wells, and then add 65 μl of Buffer B. All reactions are completed. • 6. Transfer […] of liquid from the end of reaction compound plate to the filter plate using the spiking apparatus. • 7. After placing the liquid receiving plate under the filter plate, use a centrifuge to remove the liquid and discard the liquid received in the receiving plate. • 8. Add 90 μl of buffer B to the filter plate and repeat step 7. Repeat steps 7 and 8 to wash the filter plate a total of three times. • 9. Let the filter plate dry overnight. • 10. Add 81 μl of 80% methanol/water solution to the filter plate the next day. • 11. Apply membrane to the filter plate and vibrate the plate for 15 minutes. • 12. Place a new liquid receiver plate under the filter plate and centrifuge for 5 min to filter all the liquid from the filter plate into the receiver plate. • 13. Add 13.5 μl of internal standard solution to each well of the liquid receiver plate and seal the plate with a sealing film. • 14. Using LC/MS/MS, detect the content of taurocholic acid in the receiver plate.

[5] = target: hERG (Homo sapiens, UniProt Q12809); experiment: hERG assay
[6] = Ames assay
[7] = cited from earlier work
[8] = inhibition of TCA uptake by BSEP vesicles, read-out: Potential inhibitory side effects BSEP (IC50)

Chain of BSEP bile salt transporter (O95342 whole entry): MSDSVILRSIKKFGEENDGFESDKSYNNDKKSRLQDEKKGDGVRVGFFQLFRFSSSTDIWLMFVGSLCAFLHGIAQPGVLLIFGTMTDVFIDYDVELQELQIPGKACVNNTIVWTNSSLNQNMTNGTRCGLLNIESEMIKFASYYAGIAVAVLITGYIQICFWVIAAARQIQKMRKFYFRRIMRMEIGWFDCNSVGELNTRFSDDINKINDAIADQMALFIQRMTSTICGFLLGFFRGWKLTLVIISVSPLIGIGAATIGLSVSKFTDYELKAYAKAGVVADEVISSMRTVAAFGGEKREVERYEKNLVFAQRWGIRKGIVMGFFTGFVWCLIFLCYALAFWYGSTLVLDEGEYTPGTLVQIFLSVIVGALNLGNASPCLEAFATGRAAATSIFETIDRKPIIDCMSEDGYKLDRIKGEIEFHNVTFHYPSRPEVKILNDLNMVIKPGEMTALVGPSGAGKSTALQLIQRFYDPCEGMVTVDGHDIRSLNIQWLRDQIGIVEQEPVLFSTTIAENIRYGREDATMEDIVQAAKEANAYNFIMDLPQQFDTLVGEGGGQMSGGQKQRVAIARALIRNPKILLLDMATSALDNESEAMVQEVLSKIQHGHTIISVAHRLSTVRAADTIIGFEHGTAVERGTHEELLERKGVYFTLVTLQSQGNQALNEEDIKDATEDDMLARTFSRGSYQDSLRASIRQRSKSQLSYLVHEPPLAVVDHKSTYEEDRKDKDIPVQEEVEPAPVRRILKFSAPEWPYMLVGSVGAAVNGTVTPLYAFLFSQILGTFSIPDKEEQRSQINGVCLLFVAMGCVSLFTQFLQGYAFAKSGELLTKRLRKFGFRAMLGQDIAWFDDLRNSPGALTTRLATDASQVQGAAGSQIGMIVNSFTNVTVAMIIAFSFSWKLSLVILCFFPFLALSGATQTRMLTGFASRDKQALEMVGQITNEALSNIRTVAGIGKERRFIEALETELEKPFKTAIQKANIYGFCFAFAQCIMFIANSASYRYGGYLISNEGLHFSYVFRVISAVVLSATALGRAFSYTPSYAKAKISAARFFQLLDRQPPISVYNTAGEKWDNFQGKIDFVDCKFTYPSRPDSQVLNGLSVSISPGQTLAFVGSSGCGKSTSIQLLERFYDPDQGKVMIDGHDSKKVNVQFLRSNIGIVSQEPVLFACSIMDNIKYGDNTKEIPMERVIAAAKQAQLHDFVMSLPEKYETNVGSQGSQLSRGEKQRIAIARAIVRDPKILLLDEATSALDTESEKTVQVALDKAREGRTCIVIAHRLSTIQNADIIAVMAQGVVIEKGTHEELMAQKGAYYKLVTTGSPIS
T1 sequence (O14842 whole entry): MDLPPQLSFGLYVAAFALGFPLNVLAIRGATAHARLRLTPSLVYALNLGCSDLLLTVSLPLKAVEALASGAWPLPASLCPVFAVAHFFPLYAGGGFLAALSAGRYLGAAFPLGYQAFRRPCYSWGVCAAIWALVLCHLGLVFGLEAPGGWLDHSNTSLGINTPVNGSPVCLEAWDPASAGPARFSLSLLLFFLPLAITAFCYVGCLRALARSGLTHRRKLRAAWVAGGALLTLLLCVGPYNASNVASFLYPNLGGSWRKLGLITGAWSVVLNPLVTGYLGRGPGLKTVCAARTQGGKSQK
Chain of hERG (Q12809 whole entry): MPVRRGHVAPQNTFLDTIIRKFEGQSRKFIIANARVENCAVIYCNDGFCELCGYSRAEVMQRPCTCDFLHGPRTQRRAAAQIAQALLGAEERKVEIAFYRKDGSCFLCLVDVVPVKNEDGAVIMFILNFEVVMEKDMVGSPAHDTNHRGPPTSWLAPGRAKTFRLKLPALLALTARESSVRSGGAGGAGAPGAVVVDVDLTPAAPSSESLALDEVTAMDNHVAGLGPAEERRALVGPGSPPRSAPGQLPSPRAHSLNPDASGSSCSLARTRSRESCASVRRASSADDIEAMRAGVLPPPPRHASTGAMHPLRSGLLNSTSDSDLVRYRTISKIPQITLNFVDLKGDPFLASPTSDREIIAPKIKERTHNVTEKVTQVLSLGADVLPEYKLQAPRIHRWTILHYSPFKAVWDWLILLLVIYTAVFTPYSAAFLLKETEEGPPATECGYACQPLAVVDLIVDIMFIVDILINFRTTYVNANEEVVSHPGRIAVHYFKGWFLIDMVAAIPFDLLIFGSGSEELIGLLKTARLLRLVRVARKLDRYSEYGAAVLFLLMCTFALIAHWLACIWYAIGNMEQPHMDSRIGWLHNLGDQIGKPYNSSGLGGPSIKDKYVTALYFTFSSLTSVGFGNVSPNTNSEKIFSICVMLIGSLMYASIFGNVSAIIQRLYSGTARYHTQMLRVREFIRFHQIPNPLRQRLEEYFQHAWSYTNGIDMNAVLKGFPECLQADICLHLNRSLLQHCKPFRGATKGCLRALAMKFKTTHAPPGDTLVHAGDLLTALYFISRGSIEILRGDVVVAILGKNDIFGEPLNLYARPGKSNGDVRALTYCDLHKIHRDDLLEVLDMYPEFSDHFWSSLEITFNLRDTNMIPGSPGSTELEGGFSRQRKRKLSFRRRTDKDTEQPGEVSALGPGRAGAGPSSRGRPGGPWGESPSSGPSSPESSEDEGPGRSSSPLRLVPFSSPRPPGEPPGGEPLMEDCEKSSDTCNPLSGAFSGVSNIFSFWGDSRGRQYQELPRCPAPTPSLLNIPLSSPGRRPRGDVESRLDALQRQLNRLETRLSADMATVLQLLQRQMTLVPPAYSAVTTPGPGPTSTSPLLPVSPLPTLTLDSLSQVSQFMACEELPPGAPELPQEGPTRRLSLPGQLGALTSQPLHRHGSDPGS

Row | Structure (SMILES) | EC50 ([1]; GPR40 agonist activity range (EC50), CHO-K1/GPR40 cells, read-out: GPR40 activity) [µM] | EC50 ([1]; Table 4, read-out: GPR40 Activity (hEC50)) [µM] | EC50 ([1]; read-out: GPR40 activity (EC50)) [µM] | LD50 at 5 days [2] [mg/kg] | overall / acute toxicity ([3]; MTD high dose 600 mg/kg/day, mice, 600 mg/kg/day) | abnormalities in body weight and external and internal observations ([3]; during the dosing and 5-day recovery period, 600 mg/kg) | autopsy results (heart, liver, lung, kidney, intestine) ([3]; mice, 600 mg/kg) | survival rate of the mice after administration ([3]; mice, 600 mg/kg by gavage, 5 days) [%] | IC50 [4, 8] [µM] | IC50 ([4]; read-out: BSEP) [µM] | IC50 [5] [µM] | Ames assay result [6] | risk of causing hypoglycaemia ([7]; 50 mg once daily, versus control sulphonylureas) | hepatotoxicity ([7]; clinical studies terminated in 2013) | effect on insulin secretion ([7]; when blood glucose levels are normal)
1 | CC(C)(C)OC(=O)Nc1cc(COc2ccc3c(c2)OC[C@H]3CC(=O)O)c2c(c1)OCO2 [IIb-43] | < 0.01 | 0.0068 | < 0.01 | > 600 | low and very low | no abnormalities | did not reveal any abnormal changes; also recorded: did not reveal any abnormalities | 100 | 66.8 | > 25 | > 30 | no relevant side effects | – | – | –
2 | Cc1cc(OCCCS(C)(=O)=O)cc(C)c1-c1cccc(COc2ccc3c(c2)OC[C@H]3CC(=O)O)c1 [Ref-1] | – | – | – | – | – | – | – | – | 7.1 | – | – | – | significantly lower than that of the control sulphonylureas | problems with hepatotoxicity | no effect
